For orientation: EC50 means the midpoint of the concentration-response curve. In general, IC50 refers to the concentration that gives 50% inhibition. A higher IC50 goes with weaker potency.

In experiment [1] the target is GABA-A receptor; alpha-3/beta-3/gamma-2 (Homo sapiens, UniProt P18507+P28472+P34903). The experiment in a line: Modulation of human GABAA alpha3beta3gamma2 expressed in xenopus oocytes assessed as potentiation of GABA-evoked chloride currents. The format is cell-based, Oocyte.
Experiment [2] addresses GABA-A receptor; alpha-1/beta-2/gamma-2 (Homo sapiens, UniProt P14867+P18507+P47870). Put plainly: Modulation of human GABA-A alpha1beta2gamma2 expressed in xenopus oocytes assessed as potentiation of GABA-evoked chloride currents. The format is cell-based, Oocyte.
In experiment [3] the target is GABA-A receptor; alpha-2/beta-3/gamma-2 (Homo sapiens, UniProt P18507+P28472+P47869). Put plainly: Modulation of human GABAA alpha2beta3gamma2 expressed in xenopus oocytes assessed as potentiation of GABA-evoked chloride currents. The format is cell-based, Oocyte.
The target in experiment [4] is Gamma-aminobutyric acid receptor subunit alpha-5/beta-3/gamma-3 (Homo sapiens, UniProt P28472+P31644+Q99928). Put plainly: Modulation of human GABAA alpha5beta3gamma3 expressed in xenopus oocytes assessed as potentiation of GABA-evoked chloride currents. The format is cell-based, Oocyte.
In experiment [5] the target is Sodium channel protein type 10 subunit alpha (Rattus norvegicus, UniProt Q62968). Put plainly: Binding affinity to voltage-gated Na channel 1.8 in Sprague-Dawley rat L4/L5 DRG neurons by patch-clamp technique.
In experiment [6] the target is T1, Sodium channel protein type 9 subunit alpha (Homo sapiens, UniProt Q15858). The experiment in a line: Binding affinity to human inactivated voltage-gated Na channel 1.7 expressed in HEK293 cells by patch-clamp technique. The experiment is classed as cell-based. (Patch clamp records ionic current or voltage across a cell membrane.)
The target of experiment [7] is T2, Sodium channel protein type 3 subunit alpha (Rattus norvegicus, UniProt P08104). The experiment in a line: Binding affinity to rat inactivated voltage-gated Na channel 1.3 expressed in human HEK293 cells by patch-clamp technique. The format is cell-based.
Experiment [8] has as its target T1, Sodium channel protein type 9 subunit alpha. The experiment in a line: Inhibition of human voltage-gated Na channel 1.7 by cell based patch clamp technique.
In experiment [9] the target is Sodium channel protein type 5 subunit alpha (Homo sapiens, UniProt Q14524). Put plainly: Inhibition of human voltage-gated Na channel 1.5 by cell based patch clamp technique.
The target in experiment [10] is T3, Sodium channel protein type 2 subunit alpha (Homo sapiens, UniProt Q99250). The experiment in a line: Inhibition of human voltage-gated Na channel 1.2 by cell based patch clamp technique.
Experiment [11] concerns the target Sodium channel protein type 10 subunit alpha (Homo sapiens, UniProt Q9Y5Y9). Put plainly: Inhibition of voltage-gated Na channel 1.8 (unknown origin).
The target in experiment [12] is Potassium voltage-gated channel subfamily KQT member 3 (Homo sapiens, UniProt O43525). Put plainly: Positive modulatory activity at voltage-gated K channel 7.3 (unknown origin).
Experiment [13] addresses Potassium voltage-gated channel subfamily KQT member 5 (Homo sapiens, UniProt Q9NR82). The experiment in a line: Positive modulatory activity at voltage-gated K channel 7.5 (unknown origin).
The target in experiment [14] is Calcium-activated potassium channel subunit alpha-1 (Homo sapiens, UniProt Q12791). The experiment in a line: Positive modulation of Kca 1.1 (unknown origin).
Experiment [15] concerns the target Potassium voltage-gated channel subfamily KQT member 2 (Homo sapiens, UniProt O43526). Put plainly: Positive modulatory activity at voltage-gated K channel 7.2 (unknown origin).
The target in experiment [16] is Potassium voltage-gated channel subfamily KQT member 4 (Homo sapiens, UniProt P56696). Put plainly: Positive modulatory activity at voltage-gated K channel 7.4 (unknown origin).
The target in a further experiment is Glutamate receptor 1 (Homo sapiens, UniProt P42261). The experiment in a line: Agonist activity at GluA1 (unknown origin).
Experiment [17] has as its target T4, Sodium channel protein type 3 subunit alpha (Homo sapiens, UniProt Q9NY46). The experiment in a line: Inhibition of human voltage-gated Na channel 1.3.
Experiment [18] is filed under the species Homo sapiens. Put plainly: Selectivity ratio of IC50 for human voltage-gated Na channel 1.5 to IC50 for human voltage-gated Na channel 1.3.
The species entered for experiment [19] is Homo sapiens. The experiment in a line: Selectivity ratio of IC50 for voltage-gated K channel (unknown origin) to voltage-gated K channel 2.2 (unknown origin).
Experiment [20] is filed under the species Homo sapiens. The experiment in a line: Selectivity ratio of IC50 for voltage-gated K channel (unknown origin) to human voltage-gated K channel 2.1.
The species named for experiment [21] is Homo sapiens. Put plainly: Selectivity ratio of IC50 for voltage-gated Na channel (unknown origin) to IC50 for voltage-gated K channel 2.2 (unknown origin).
The species named for experiment [22] is Homo sapiens. The experiment in a line: Selectivity ratio of IC50 for voltage-gated Na channel (unknown origin) to IC50 for human voltage-gated K channel 2.1.
The target in experiment [23] is Potassium voltage-gated channel subfamily B member 2 (Homo sapiens, UniProt Q92953). The experiment in a line: Inhibition of voltage-gated K channel 2.2 (unknown origin) by automated patch clamp assay.
Experiment [24] addresses T2, Sodium channel protein type 3 subunit alpha. Put plainly: Inhibition of rat voltage-gated Na channel 1.3 in dorsal root ganglion neurons by patch clamp technique. The experiment is classed as tissue-based.
For experiment [25], the target named is Sodium channel protein type 1 subunit alpha (Rattus norvegicus, UniProt P04774). The experiment in a line: Inhibition of rat voltage-gated Na channel 1.1 in dorsal root ganglion neurons by patch clamp technique. The experiment is classed as tissue-based.
Experiment [26] addresses Sodium channel protein type 4 subunit alpha (Homo sapiens, UniProt P35499). Put plainly: Inhibition of voltage-gated Na channel 1.4 (unknown origin).
For experiment [27], the target named is Potassium voltage-gated channel subfamily A member 5 (Homo sapiens, UniProt P22460). The experiment in a line: Inhibition of voltage-gated K channel 1.5 (unknown origin).
For experiment [28], the target named is Voltage-gated inwardly rectifying potassium channel KCNH2 (Homo sapiens, UniProt Q12809). The experiment in a line: Inhibition of human ERG channel.
For experiment [29], the target named is Sodium channel protein type 1 subunit alpha (Homo sapiens, UniProt P35498). The experiment in a line: Inhibition of voltage-gated Na channel 1.1 (unknown origin).
In experiment [30] the target is T4, Sodium channel protein type 3 subunit alpha. Put plainly: Inhibition of voltage-gated Na channel 1.3 (unknown origin).
In experiment [31] the target is Potassium voltage-gated channel subfamily KQT member 1 (Homo sapiens, UniProt P51787). The experiment in a line: Inhibition of voltage-gated K channel 7.1 (unknown origin).
Experiment [32] addresses Sodium channel protein type 8 subunit alpha (Homo sapiens, UniProt Q9UQD0). The experiment in a line: Inhibition of voltage-gated Na channel 1.6 (unknown origin).
The target in experiment [33] is T1, Sodium channel protein type 9 subunit alpha. The experiment in a line: Inhibition of voltage-gated Na channel 1.7 (unknown origin).
Experiment [34] has as its target T3, Sodium channel protein type 2 subunit alpha. Put plainly: Inhibition of voltage-gated Na channel 1.2 (unknown origin).

T1 sequence (Q15858 whole entry): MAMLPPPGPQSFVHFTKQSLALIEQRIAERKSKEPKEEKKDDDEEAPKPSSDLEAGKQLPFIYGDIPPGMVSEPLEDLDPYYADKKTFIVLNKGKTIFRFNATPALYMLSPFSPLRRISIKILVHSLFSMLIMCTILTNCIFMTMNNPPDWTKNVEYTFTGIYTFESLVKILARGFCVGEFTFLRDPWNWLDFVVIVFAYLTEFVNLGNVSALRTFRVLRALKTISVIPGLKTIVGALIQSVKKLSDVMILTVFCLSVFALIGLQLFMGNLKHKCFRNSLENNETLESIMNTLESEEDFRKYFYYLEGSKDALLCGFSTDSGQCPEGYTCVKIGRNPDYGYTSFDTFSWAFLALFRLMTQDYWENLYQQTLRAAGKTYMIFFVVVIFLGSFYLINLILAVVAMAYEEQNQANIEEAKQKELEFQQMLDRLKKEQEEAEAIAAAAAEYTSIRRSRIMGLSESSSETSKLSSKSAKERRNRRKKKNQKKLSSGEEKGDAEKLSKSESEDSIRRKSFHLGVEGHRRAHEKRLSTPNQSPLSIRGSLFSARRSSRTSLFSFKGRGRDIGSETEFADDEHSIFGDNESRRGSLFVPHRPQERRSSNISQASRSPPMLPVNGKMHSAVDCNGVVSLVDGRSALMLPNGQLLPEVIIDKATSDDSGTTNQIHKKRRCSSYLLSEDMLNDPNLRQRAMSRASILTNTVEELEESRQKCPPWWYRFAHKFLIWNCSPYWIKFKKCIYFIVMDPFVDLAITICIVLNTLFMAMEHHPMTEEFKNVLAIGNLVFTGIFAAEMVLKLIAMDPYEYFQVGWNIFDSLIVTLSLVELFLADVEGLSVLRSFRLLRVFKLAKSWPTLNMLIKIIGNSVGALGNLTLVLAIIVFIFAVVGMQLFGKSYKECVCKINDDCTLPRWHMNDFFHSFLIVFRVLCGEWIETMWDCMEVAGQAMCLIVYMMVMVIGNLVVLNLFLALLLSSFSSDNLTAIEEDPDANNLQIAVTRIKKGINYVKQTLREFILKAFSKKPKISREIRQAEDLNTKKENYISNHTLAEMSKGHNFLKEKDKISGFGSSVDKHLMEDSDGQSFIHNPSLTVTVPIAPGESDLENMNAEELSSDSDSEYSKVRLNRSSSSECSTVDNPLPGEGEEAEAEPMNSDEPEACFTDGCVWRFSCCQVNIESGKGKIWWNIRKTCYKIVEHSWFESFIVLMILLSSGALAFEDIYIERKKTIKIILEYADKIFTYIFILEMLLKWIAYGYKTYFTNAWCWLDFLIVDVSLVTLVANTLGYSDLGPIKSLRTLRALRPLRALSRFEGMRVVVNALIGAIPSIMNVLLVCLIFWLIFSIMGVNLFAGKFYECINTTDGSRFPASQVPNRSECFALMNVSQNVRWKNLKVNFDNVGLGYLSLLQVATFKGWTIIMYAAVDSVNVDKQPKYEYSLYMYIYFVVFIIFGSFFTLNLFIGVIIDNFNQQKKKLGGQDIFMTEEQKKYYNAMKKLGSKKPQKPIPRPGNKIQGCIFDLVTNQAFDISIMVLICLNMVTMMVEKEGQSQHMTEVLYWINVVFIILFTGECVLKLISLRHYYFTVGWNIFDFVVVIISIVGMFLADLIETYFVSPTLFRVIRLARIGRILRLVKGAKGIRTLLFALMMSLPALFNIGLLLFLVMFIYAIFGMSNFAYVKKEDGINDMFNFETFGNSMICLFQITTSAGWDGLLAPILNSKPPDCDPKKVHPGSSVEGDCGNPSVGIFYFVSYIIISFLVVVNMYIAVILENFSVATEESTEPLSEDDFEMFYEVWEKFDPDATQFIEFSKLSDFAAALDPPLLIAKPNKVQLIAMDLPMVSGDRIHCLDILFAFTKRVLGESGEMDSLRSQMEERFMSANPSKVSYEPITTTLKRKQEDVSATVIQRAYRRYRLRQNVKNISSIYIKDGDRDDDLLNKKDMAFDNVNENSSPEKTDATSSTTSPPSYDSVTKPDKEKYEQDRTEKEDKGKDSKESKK
T4 sequence (Q9NY46 whole entry): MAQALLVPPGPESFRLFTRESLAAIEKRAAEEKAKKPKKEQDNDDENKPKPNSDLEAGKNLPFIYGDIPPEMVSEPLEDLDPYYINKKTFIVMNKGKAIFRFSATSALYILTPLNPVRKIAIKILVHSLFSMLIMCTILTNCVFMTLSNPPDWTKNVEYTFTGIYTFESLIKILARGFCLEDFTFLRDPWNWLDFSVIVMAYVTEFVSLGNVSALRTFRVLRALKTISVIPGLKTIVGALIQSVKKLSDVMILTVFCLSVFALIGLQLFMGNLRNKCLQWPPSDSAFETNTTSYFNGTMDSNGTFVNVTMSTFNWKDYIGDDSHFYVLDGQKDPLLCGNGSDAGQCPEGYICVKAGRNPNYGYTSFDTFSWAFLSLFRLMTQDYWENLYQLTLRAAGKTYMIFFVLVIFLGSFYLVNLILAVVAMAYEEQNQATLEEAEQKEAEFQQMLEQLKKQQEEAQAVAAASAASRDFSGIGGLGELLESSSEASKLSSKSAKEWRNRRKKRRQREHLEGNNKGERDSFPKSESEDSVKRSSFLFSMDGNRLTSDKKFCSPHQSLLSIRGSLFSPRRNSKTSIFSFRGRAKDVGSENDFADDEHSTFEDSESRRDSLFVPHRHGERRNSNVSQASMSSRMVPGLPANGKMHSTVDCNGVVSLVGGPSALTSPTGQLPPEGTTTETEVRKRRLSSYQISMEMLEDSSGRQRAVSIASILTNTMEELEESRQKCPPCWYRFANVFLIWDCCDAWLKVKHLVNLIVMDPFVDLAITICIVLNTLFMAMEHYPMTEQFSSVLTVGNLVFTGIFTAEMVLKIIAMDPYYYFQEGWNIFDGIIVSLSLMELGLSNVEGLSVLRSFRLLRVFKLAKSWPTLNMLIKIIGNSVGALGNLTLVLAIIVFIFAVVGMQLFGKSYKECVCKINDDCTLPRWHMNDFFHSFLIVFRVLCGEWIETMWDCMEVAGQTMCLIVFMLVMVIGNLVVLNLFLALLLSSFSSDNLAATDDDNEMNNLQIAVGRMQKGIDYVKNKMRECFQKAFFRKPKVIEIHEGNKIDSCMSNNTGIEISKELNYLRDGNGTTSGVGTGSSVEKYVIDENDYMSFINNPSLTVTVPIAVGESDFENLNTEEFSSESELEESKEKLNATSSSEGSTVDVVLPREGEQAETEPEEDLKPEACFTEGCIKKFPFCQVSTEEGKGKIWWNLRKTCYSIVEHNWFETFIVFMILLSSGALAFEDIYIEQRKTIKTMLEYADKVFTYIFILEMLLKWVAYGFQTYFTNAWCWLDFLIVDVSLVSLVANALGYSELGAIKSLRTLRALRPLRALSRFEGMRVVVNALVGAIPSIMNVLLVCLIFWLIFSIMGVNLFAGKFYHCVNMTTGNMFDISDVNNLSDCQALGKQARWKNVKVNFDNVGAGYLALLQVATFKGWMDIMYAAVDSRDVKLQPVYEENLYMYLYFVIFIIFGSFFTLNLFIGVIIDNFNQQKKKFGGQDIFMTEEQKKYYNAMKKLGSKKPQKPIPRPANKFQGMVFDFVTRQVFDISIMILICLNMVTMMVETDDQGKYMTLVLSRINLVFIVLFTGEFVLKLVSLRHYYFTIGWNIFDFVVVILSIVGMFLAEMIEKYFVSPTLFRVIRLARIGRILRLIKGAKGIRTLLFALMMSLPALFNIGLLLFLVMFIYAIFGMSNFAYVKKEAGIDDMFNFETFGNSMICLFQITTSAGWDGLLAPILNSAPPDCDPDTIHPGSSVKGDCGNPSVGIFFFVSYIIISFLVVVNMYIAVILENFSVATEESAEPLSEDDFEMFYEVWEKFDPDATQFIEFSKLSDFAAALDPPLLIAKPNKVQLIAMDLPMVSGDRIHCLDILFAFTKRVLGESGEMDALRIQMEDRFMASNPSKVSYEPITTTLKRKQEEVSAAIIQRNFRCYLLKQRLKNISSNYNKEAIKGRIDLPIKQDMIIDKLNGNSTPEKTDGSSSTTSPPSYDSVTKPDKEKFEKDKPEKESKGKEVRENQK
Voltage-gated inwardly rectifying potassium channel KCNH2, sequence (Q12809 whole entry): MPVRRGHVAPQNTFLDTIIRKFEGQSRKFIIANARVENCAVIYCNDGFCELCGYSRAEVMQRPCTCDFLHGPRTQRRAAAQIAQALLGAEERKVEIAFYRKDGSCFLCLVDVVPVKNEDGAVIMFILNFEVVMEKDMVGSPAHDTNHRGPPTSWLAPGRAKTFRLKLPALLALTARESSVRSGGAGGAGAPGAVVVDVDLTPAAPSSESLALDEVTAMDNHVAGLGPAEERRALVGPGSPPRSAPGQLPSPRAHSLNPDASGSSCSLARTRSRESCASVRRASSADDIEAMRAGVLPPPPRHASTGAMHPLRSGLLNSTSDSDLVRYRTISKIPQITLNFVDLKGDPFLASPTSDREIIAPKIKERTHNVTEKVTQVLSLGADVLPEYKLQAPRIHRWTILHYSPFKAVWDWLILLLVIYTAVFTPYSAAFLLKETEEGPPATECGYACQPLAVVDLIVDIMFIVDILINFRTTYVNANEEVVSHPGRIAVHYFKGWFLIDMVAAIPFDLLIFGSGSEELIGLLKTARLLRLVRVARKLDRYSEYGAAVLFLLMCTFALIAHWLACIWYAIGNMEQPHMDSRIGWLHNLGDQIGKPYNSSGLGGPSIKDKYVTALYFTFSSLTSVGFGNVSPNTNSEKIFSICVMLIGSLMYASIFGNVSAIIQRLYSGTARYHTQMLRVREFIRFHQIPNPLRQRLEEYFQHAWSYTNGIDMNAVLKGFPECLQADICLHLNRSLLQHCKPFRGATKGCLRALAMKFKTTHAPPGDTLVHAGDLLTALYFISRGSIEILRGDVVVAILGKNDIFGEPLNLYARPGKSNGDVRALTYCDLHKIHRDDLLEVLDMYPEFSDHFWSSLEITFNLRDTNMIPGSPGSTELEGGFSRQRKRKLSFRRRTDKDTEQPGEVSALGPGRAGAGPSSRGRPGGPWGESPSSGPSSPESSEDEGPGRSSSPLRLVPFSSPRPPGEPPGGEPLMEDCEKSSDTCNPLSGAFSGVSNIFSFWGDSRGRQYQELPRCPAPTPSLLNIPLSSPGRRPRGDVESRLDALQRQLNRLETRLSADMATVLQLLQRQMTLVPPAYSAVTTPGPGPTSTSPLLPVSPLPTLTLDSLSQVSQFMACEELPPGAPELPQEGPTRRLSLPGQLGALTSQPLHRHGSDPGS

Turning to `CCN(C(C)=O)c1cccc(-c2ccnc3c(C#N)cnn23)c1` [ZALEPLON], the EC50 was more than 1000 nM in [1], 290 nM in experiment [2], 1630 nM in [3] and more than 1000 nM in [4].

For the compound `COC[C@@H](NC(C)=O)C(=O)NCc1ccccc1` [LACOSAMIDE], the results for the IC50 in [5], in experiment [6] and in experiment [7] were 16000 nM, 182 nM and 415 nM, respectively.

`COc1cnc(-c2cccc3c2C[C@H](NC(=O)c2ccc(COCC(F)(F)F)nc2)CO3)cn1`: the half-inhibitory concentration (IC50) is 66 nM in experiment [8], 13000 nM in experiment [9] and more than 33000 nM in experiment [10].

Take `O=C(NCc1cccnc1N1CCOCC1)c1cncc(-c2ccc(OC(F)(F)F)cc2)n1`: in experiment [11], half-maximal inhibition (IC50) required 30 nM.

Regarding `COc1ccc(Cl)cc1[C@]1(F)C(=O)Nc2cc(C(F)(F)F)ccc21` [FLINDOKALNER], the EC50 in [12] turned out to be 2400 nM; in [13] it was 2400 nM; in experiment [14] it was 352 nM; in experiment [15], 2400 nM; in experiment [16], 2400 nM.

As to `N[C@@H](C[C@@H](C/C=C/c1ccc2ccccc2c1)C(=O)O)C(=O)O`, the EC50 at Glutamate receptor 1 is more than 300000 nM.

As to `O=C(NCc1ccc(Cl)c(C(F)(F)F)c1)c1ccc(S(=O)(=O)Nc2ncc(Cl)s2)cc1`, in experiment [17], it took 30 nM to reach half-maximal inhibition (IC50). Besides, the Ratio IC50 in the experiment listed under Homo sapiens [18] is more than 1000.

Regarding `CC(C)C(=O)Nc1ccc(N(C)C)c(C(=O)N[C@@H](C)c2ccccc2)c1`, the Ratio IC50 in the experiment listed under Homo sapiens [19], in the experiment filed under Homo sapiens [20], in the experiment filed under Homo sapiens [21] and in the experiment listed under Homo sapiens [22] was more than 10 in each case. For the same compound, half-maximal inhibition in [23] (IC50) required 100 nM.

Take `O=C1[C@@H](N2CC[C@H](c3cc(Cl)cc(Cl)c3)C2)CCN1c1ccc(S(=O)(=O)Nc2nccs2)cc1`: the IC50 in experiment [24] and in [25] was less than 2000 nM each time.

For `NC(=O)C(c1ccccc1)(c1ccc(F)cc1)c1ccc(F)cc1` [SENICAPOC], the IC50 in experiment [26], in experiment [27], in experiment [28], in experiment [29], in experiment [30] and in [31] was more than 1000 nM each time. The IC50 in experiment [32], in experiment [33] and in experiment [34] was more than 1000 nM each time.

For the origin of these results see ChEMBL document CHEMBL2321869, “Ion channels as therapeutic targets: a drug discovery perspective” (J Med Chem, 2013).
